Measured values from publication PMC8805119, “Spatial Distribution and Stability of Cholinesterase Inhibitory Protoberberine Alkaloids from Papaver setiferum” (Journal of Natural Products, 2021).
Where two headings read alike, the source gives them in different places.

Legend:
[1] = molecular target: T1, human recombinant acetylcholinesterase (hrAChE) (Homo sapiens, UniProt P22303); assay: Cholinesterase inhibition assay (Ellman method), hrAChE; type: biochemical; conditions: for Ki: inhibition constant, Dixon plot, substrate 0.125, 0.25, 0.5 mM
T1 construct: purchased Sigma-Aldrich
T1 sequence (P22303 32-614): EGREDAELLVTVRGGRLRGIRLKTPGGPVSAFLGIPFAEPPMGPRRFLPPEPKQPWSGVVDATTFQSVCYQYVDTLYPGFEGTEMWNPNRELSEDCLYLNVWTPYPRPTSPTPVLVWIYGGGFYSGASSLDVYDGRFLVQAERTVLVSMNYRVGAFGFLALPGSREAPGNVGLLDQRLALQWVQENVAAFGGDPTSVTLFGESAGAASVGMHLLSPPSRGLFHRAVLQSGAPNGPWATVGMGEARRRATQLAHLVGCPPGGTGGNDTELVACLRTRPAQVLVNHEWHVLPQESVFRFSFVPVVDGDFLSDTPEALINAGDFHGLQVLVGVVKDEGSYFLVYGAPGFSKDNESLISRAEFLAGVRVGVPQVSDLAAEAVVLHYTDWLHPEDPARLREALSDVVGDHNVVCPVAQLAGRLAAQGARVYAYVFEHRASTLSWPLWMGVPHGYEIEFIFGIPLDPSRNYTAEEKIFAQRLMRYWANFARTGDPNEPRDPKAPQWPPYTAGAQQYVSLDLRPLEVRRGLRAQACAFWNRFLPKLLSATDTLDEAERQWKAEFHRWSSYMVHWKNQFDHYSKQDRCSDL
Method: (§1) Cholinesterase activities were measured by the Ellman method[58] adapted for 96-well microtiter plates, as previously described.[59] The compounds were first screened for the IC50 determination, and for those with IC50 < 200 μM, the inhibitory constants (Ki) were determined. Stock solutions of the tested compounds (5 mg/mL) and of the positive control (1 mg/mL neostigmine bromide, Sigma-Aldrich, St. Louis, MO, USA) were prepared in 100% MeOH. These solutions were added to the wells and gradually diluted in 100 mM potassium phosphate buffer (pH 7.4) to the final volume of 50 μL. Acetylthiocholine chloride and 5,5′-dithiobis-2-nitrobenzoic acid were then dissolved in the same buffer to the respective final concentrations of 1 and 0.5 mM and added (100 μL) to the wells of the microtiter plates. eeAChE, hrAChE, or hsBChE (all Sigma-Aldrich) were dissolved in the same buffer to 0.0075 U/mL. A 50 μL amount of each of the cholinesterases was added to start the reactions, which were followed spectrophotometrically at 405 nm and 25 °C for 5 min using a kinetic microplate reader (Dynex Technologies Inc., Chantilly, VA, USA). Blank reactions without the inhibitors were run in the presence of the appropriate dilution of MeOH in 100 mM potassium phosphate buffer (pH 7.4). The concentrations of the compounds inducing 50% inhibition of enzyme activity (IC50) were determined and expressed as mean values ± SEM. To determine the inhibition constants (Ki), the kinetics were monitored using three different final substrate concentrations (0.125, 0.25, 0.5 mM). Each measurement was repeated at least three times. Data were analyzed using OriginPro software (OriginPro 2020, OriginLab Corporation, Northampton, MA, USA).

[2] = Storage stability of isolated compounds (oxidation); type: physicochemical
Method: These findings are of interest as they contrast with observations from the present work. In this study, no special precautions were taken in the isolation of 1 and 2, although the laboratory studies were conducted relatively quickly: only 9 days elapsed from the collection of fresh plants to the acquisition of NMR data (see Supporting Information, Figure S31 for a detailed isolation timeline). […] Comparison of the present methodology with the approaches used by Tsai and Lee[25] and Paulsen et al.[26] has led to the hypothesis that the use of a strong acid (0.1% TFA, pH ∼2.0) during HPLC may be an important component of compound stability. In the present investigation, 0.1% TFA was used in both solvents during HPLC purification, and the same was done by Tsai and Lee. Conversely, Paulsen et al. opted for a three-solvent system of 10 mM (NH4)2SO3, 0.2% triethylamine adjusted with acetic acid to pH 4.0 (solvent A), CH3CN (solvent B), and MeOH (solvent C). Their observation that 13,14-dihydrocoptisine oxidized repeatedly after HPLC leads to the present conclusion that these conditions may have been insufficiently acidic to stabilize the compound. However, this was not tested in the current work. Further, given the varied substitution of the aromatic motifs in these compounds, the role these groups play upon stability cannot be yet ascertained. […]

[3] = molecular target: T2, horse serum butyrylcholinesterase (hsBChE) (Equus caballus, UniProt P81908); assay: biochemical; type: biochemical; conditions: for Ki: inhibition constant, Dixon plot, substrate 0.125, 0.25, 0.5 mM; for IC50: means ± SEM of three independent measurements; for selectivity for BChE: hsBChE versus AChEs
T2 construct: purchased Sigma-Aldrich; host or cells: horse serum
T2 sequence (P81908 whole entry): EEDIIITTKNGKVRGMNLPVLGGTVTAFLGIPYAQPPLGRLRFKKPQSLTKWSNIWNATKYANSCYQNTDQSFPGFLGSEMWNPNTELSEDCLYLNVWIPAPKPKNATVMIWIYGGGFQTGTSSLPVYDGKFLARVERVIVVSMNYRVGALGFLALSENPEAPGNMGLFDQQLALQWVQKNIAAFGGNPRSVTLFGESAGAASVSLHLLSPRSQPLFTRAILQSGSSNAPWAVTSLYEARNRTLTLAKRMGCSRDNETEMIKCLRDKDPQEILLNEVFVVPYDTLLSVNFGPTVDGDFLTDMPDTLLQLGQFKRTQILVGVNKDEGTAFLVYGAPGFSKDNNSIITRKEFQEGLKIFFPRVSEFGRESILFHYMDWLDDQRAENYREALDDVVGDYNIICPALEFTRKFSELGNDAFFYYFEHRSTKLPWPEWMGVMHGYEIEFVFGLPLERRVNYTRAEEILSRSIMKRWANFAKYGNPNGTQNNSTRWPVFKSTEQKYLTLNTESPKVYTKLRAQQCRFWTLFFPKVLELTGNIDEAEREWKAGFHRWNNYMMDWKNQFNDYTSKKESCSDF
Method: as §1

[4] = molecular target: T3, electric eel acetylcholinesterase (eeAChE) (Electrophorus electricus, UniProt O42275); assay: Cholinesterase inhibition assay (Ellman method), eeAChE; type: biochemical; conditions: for Ki: inhibition constant, Dixon plot, substrate 0.125, 0.25, 0.5 mM
T3 construct: purchased Sigma-Aldrich
T3 sequence (O42275 24-633): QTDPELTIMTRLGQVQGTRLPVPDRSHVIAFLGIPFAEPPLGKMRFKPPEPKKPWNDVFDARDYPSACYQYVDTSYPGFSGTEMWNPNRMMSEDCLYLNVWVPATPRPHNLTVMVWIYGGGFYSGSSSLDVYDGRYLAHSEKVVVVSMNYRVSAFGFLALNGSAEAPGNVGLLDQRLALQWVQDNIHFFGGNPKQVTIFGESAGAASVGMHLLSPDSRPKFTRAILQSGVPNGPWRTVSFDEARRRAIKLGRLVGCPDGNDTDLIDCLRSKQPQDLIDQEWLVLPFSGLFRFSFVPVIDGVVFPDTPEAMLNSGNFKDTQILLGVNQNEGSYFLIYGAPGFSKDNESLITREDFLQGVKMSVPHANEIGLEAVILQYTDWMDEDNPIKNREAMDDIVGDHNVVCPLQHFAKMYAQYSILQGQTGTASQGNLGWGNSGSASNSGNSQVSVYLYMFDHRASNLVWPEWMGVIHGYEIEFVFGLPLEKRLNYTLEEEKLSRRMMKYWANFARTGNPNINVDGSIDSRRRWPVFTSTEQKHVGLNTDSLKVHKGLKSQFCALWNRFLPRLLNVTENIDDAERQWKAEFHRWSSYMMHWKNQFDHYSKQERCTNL
Method: as §1

[5] = Protoberberine oxidation analysis in P. setiferum capsules (oven 40 °C vs freezer -20 °C, LC-MS); type: physicochemical, Papaver setiferum; conditions: 2 weeks
Method: The alkaloid analysis was based on De Vos et al. (2007).[57]P. setiferum material was collected at four time points: (1) approximately 3 days before flowering, (2) during flowering, (3) approximately 2 weeks after flowering, and (4) approximately 4 weeks after flowering (by which point the flowers had dried and turned brown). At each collection time, a sample of the aerial parts (three separate stems, each with several leaves and a capsule) was collected and stored at −20 °C. The samples were later separated into capsules, leaves, and stems and ground into a powder using a mortar and pestle. One hundred milligrams (±5 mg) of each was transferred into an Eppendorf tube, and each weight was recorded. Cold MeOH (0.1% FA) was added to each in a 1:10 w/v ratio, and the tubes were sonicated for 30 min. The samples were centrifuged for 5 min at 13 000 rpm, and the supernatant was filtered (0.2 μm). A pooled sample was prepared by taking 20 μL from each sample and combining into a single vial. All samples were diluted 1:10 in Milli-Q water prior to LC-MS analysis. The samples were randomly ordered for LC-MS, with the pooled sample run interspaced after every fourth sample. An injection volume of 2 μL was used for each sample. The solvents used were 5% CH3CN (0.1% FA) (solvent A) and 95% CH3CN (0.1% FA) (solvent B). The column used was a Phenomenex Kinetex XB-C18 (2.6 μm, 100 Å, 3.0 × 100 mm) with a linear solvent gradient from 15% to 50% solvent B over 20 min. Alkaloids were identified by comparison of retention times with authentic standards.
From three P. setiferum capsules [taken from time point (1) in the time series analysis], two lots of 100 ± 5 mg of material were weighed into Eppendorf tubes. One set of samples was stored with the lids open in the oven at 40 °C, while the others were stored in the freezer at −20 °C. After 2 weeks, the samples were analyzed by LC-MS, as described above.

[6] = C. majus material; cited from earlier work
[7] = means ± SEM of three independent measurements, read-out: hrAChE IC50
[8] = means ± SEM of three independent measurements, read-out: eeAChE IC50
[9] = AChEs (eeAChE and hrAChE), compared to 2

| SMILES | Ki [1] [µM] | IC50 [1, 7] [µM] | Ki [3] [µM] | IC50 [3] [µM] | Ki [4] [µM] | IC50 [4, 8] [µM] | change of concentration in oven-dried capsules versus capsules stored at -20 °C [5] | further results |
| --- | --- | --- | --- | --- | --- | --- | --- | --- |
| COc1cc2c(c3c1OCOC3)C[C@H]1c3c(cc4c(c3OC)OCO4)CCN1C2 [Compound 4, orientalidine] | 13.7 | 19.9 ± 1.1 | 35.5 | 104 ± 4 | 2 | 5 ± 1 | – | oxidation on standing in an NMR tube ([2]; 1:1 mixture of 4 and 5 (fraction C.12), four months): complete oxidation of 4 to 5 |
| COc1cc2c[n+]3c(cc2c(CO)c1OC)-c1c(cc2c(c1OC)OCO2)CC3 [Compound 3, alborine] | 13.2 | 20 ± 0.9 | 43.7 | 63.1 ± 0.5 | 3.6 | 6.8 ± 4.5 | approximately doubling | – |
| COc1cc2c3c(c1O)-c1c(cccc1OC)C[C@@H]3N(C)CC2 [Compound 6, isothebaine] | – | – | 0.6 | 2.8 ± 3 | 68 | 260 ± 1 | – | IC50 [1]: > 342 µM; selectivity for BChE [3]: good selectivity for BChE |
| O=[N+]([O-])CCc1ccc(O[C@@H]2O[C@H](CO[C@@H]3OC[C@@H](O)[C@H](O)[C@H]3O)[C@@H](O)[C@H](O)[C@H]2O)cc1 [Compound 11, thalictricoside] | – | > 342 | – | > 342 | – | > 342 | – | – |
| COc1cc(C[C@H]2c3cc(O)c(OC)cc3CC[N+]2(C)C)ccc1O [Compound 8, N-methylorientaline] | – | > 342 | – | 342 ± 3 | – | > 342 | – | – |
| COc1cc2c[n+]3c(cc2c2c1OCOC2)-c1c(cc2c(c1OC)OCO2)CC3 [Compound 5, 7,8,13,14-dehydroorientalidine] | – | – | – | – | – | – | below the level of detection | – |
| COC1=C[C@]23CCN(C)[C@H](Cc4ccc(OC)c(O)c42)C3=CC1=O [Compound 10, salutaridine] | – | – | – | – | – | – | – | IC50 [1]: > 342 µM; IC50 [4]: > 342 µM |
| COc1cc2c(c3c1OCOC3)C[C@H]1c3c(cc4c(c3OC)OCO4)CC[N+]1=C2.O=C([O-])C(F)(F)F [Compound 2, 7,8-Didehydroorientalidine TFA salt] | 6.3 | 18.9 ± 1.8 | 47 | 98.5 ± 0.6 | 1 | 3.4 ± 4.7 | minor decrease in concentration | – |
| COc1cc2c3c(c1O)-c1c(cccc1OC)C[C@@H]3[N+](C)(C)CC2 [Compound 7, N-methylisothebainium] | – | > 342 | 2.2 | 7.1 ± 2.7 | – | > 342 | – | selectivity for BChE [3]: good selectivity for BChE |
| C1=[N+]2CCc3cc4c(cc3C2Cc2ccc3c(c21)OCO3)OCO4 (stereo not shown) [13,14-dihydrocoptisine] | – | – | – | – | – | – | – | oxidation after oven-drying of plant material [6]: complete oxidation |
| COc1cc2c(cc1O)[C@H](Cc1ccc(OC)c(OC)c1)[N+](C)(C)CC2 [Compound 9, N-methylcodamine] | – | > 342 | – | 221 ± 1 | – | > 342 | – | – |
| COc1cc2c(c(CO)c1OC)C[C@H]1c3c(cc4c(c3OC)OCO4)CC[N+]1=C2.O=C([O-])C(F)(F)F [Compound 1, 7,8-Didehydromecambridine TFA salt] | 31 | 66.6 ± 2.4 | 58.5 | 100 ± 5 | 7 | 10.3 ± 1.1 | minor decrease in concentration | oxidation of dried sample on storage ([2]; TFA salt, 0.7 mg, uncapped glass vial, room temperature, approximately 8 weeks): no oxidation to 3; lower activity against AChEs when compared to 2 [4, 9]: approximately 3 fold; lower inhibition constants when compared to 2 [4, 9]: ~6 fold |
